pEC50: −log10 of the molar value.

Data set [1] deals with HEK293T/17-ATF4 uORF-Luc-Puro monoclonal cells. As to the kind of experiment: Cell activity test: ATF4 luciferase reporter, thapsigargin-induced stress. The class given is cell-based. Particulars: Homo sapiens, HEK-293T; ATF4 reporter expression, 50 nM thapsigargin, 6 hours. An excerpt: The ATF4 luciferase reporter plasmid consists of two parts, i.e., the 5′ untranslated region sequence of the ATF4 gene and the luciferase coding sequence. Specifically, the ATF4 5′ untranslated region sequence (NCBI database number BC022088.2) containing two upstream open reading frames (uORFs), and the firefly luciferase encoding gene were cloned into the pLVX-Puro vector (YouBio, VT1465). The lentivirus packaging plasmids were psPAX2 (YouBio, VT1444) and pMD2.G (YouBio, VT1443). HEK293T/17 cells were transfected with the above three plasmids simultaneously using X-tremeGENE 9 DNA transfection reagent, and after 48 hours, a culture medium containing lentivirus was collected. HEK293T/17 cells transduced with the virus were screened with 1 μg/mL puromycin, and then monoclonal cells were obtained by limiting dilution.
By using this cell line and the cold fluorescence readings, the translational regulation of ATF4 can be detected, and the activity of the eIF2B activator can be tested. The specific experimental process is as follows: 6000 HEK293T/17-ATF4 uORF-Luc-Puro monoclonal cells were plated in a 384-well plate and allowed to adhere overnight. The test compounds were dissolved in DMSO and added together with 50 nM thapsigargin to the cell culture medium and incubated for 6 hours, wherein the thapsigargin was used to cause cellular stress and upregulate the protein translation of ATF4. Six hours after the addition, the cells were lysed using the One-Glo Luciferase Assay Kit (Promega #E6120), and then the cold fluorescence values were read using the LUM program of the EnVision 2104 plate reader.
The ATF4 reporter expression % was calculated as follows:
[formula] • ave_vc: average signal value of negative control • ave_pc: average signal value of positive control • ave_sample: average signal value of sample
The dose-response curves were fitted, and the EC50 values were calculated.
The nonlinear regression log (inhibitor) vs. response—variable slope (four parameters) method of GraphPad 9 software was used to fit the corresponding relationship between the ATF4 reporter expression % and the compound concentration.
X-axis: log value of compound concentration; Y-axis: ATF4 reporter expression %; Top: evaluation of upper asymptote of curve; Bottom: evaluation of lower asymptote of curve; Hillslope: slope of the fitted curve.
For orientation: Reporter assays use an easily measured gene product as a stand-in for the process of interest.

Data set [2] is described as follows: In vitro liver microsome stability. It counts as in vitro ADME. Conditions: liver microsomes, NADPH, 37° C. Here is the method:
A 5 mM MgCl2 100 mM K-Mg buffer solution was pre-heated. 5 μL of a 10 mM compound and a reference stock solution were added to 95 μL of acetonitrile (ACN) to prepare a spiked solution. 1.5 μL of a 500 µM spiked solution and 18.75 μL of 20 mg/mL liver microsomes were added to 479.8 μL of the K-Mg buffer solution. NADPH was dissolved in the K-Mg-buffer solution to prepare an NADPH stock solution ([…]). At different time points (0, 5, 15, 30 and 45 minutes), 30 μL of a 1.5 μM spiked solution containing the microsomes was evenly dropped into an assay plate. The plate was preincubated at 37° C. for 5 minutes. At 0 min, 200 μL of ACN containing IS (internal standard, tolbutamid/terfenadine) was added to the wells, and then 15 μl of the NADPH stock solution (6 mM) was added. For other time points, 15 μL of the NADPH stock solution (6 mM) was added to the wells to initiate the reaction and start the timing. At 5, 15, 30 and 45 min, the reaction was stopped by adding 200 μL of ACN containing IS to the corresponding wells of the plate. After quenching, the plate was shaken at 600 rpm for 10 minutes and then centrifuged at 4000 rpm for 50 minutes. 80 μL of the supernatant from each well was transferred to a 96-well sample plate containing 160 μL of pure water for UPLC/MS/MS analysis.

As to `O=C(COc1ccc(Cl)c(F)c1)N[C@H]1CC[C@H](c2nnc(N3CC(OC(F)(F)F)C3)o2)CC1` [Compound 6], the pEC50 (commonly the EC50 on a negative log10 scale, so that one unit is a factor of ten) in data set [1] is more than 9.00. Further, in data set [2], the half-life (in general, the time in which the quantity being followed falls by half) at 1 µM is more than 1.5 h.

The values above are taken from patent publication US12612392B2, “Compound, pharmaceutical compositions containing same, synthesis method therefor and use thereof” (SHENZHEN ZHONGGE BIOLOGICAL TECHNOLOGY CO., LTD., priority 2022, dated 2026).
